Experiment: Comparison of radical quenchers: impurities on storage at 40° C. and 75% relative humidity, uncoated canisters
Assay type: physicochemical
Conditions: for effectiveness in reducing degradation of the budesonide formulations: Tables X-XII, 40° C./75% relative humidity
Source text: To compare the effectiveness of various radical quenchers in preventing degradation of budesonide formulations, formulations containing budesonide, HFA-134a, ethanol, and a radical quencher were made in uncoated canisters using the steps described in Example I. The compositions of the formulations are shown in Table IX. Formulations were made containing each radical quencher with and without 3% aqueous hydrogen peroxide. The hydrogen peroxide was included in some formulations to challenge the radical quencher.
The initial impurities in each formulation were measured, and the formulations were stored at 40° C. and 75% relative humidity. Impurities were measured again after 4 weeks and after 3 months. For selected formulations, impurities were also measured after 11 months.

| Molecule | effectiveness in reducing degradation of the budesonide formulations | physical stability of formulations including the radical quencher (clumping) (budesonide/ethanol/HFA-134a formulations) |
| --- | --- | --- |
| CCCCCCCCCCCCCCCC(=O)OC[C@H](O)[C@H]1OC(=O)C(O)=C1O [ascorbyl palmitate] | very effective | tended to form clumps of solid matter |
| COc1ccc(O)c(C(C)(C)C)c1 [butylated hydroxyanisole (BHA), butylated hydroxyanisole] | very effective | – |
| Vitamin E | effectively reduced degradation | – |
